Laboratory results published in PMC4598118 (PLoS ONE, 2015).
“And” between values parts separate entries of the source, which are not always exact repeats. Equal entries are not always repeated. Where two headings read alike, the source gives them in different places. Marks after values point to notes of the source that are not given here.

Assays:
[1] = molecular target: T1, Mus musculus AChE (mAChE) (Mus musculus, UniProt P21836); details: cited from earlier work
[2] = molecular target: T1, Mus musculus AChE (mAChE); format: biochemical
[3] = molecular target: T2, Homo sapiens AChE (hAChE) (Homo sapiens, UniProt P22303); details: cited from earlier work
[4] = molecular target: Anopheles gambiae AChE1 (AgAChE1) (Anopheles gambiae, UniProt Q869C3); format: biochemical
[5] = molecular target: Aedes aegypti AChE1 (AaAChE1) (Aedes aegypti, UniProt Q6A2E2); format: biochemical
[6] = molecular target: T3, Anopheles gambiae AChE1-G119S (Anopheles gambiae, UniProt Q869C3, G280S); format: biochemical
[7] = molecular target: T3, Anopheles gambiae AChE1-G119S; details: cited from earlier work
[8] = molecular target: T2, Homo sapiens AChE (hAChE); format: biochemical
hAChE [9] = molecular target: T4, hAChE (Homo sapiens, UniProt P22303); details: read-out: IC 50-values of reversible inhibitors; cited from earlier work
mAChE [10] = molecular target: T5, mAChE (Mus musculus, UniProt P21836); details: read-out: IC 50-values of reversible inhibitors; cited from earlier work
AaAChE1 [11] = molecular target: T6, AaAChE1 (Aedes aegypti, UniProt Q6A2E2); assay: biochemical
[12] = test system: AChE1 vs vertebrate AChEs; format: biochemical
AgAChE1-G119S [13] = molecular target: T7, AgAChE1-G119S (Anopheles gambiae, UniProt Q869C3, G280S); format: biochemical
AgAChE1 = AgAChE1 (Anopheles gambiae, UniProt Q869C3); format: biochemical
hAChE [14] = molecular target: T4, hAChE; format: biochemical
AaAChE1 [15] = molecular target: T6, AaAChE1; format: biochemical
mAChE [16] = molecular target: T5, mAChE; format: biochemical
mAChE [17] = molecular target: T5, mAChE; assay: biochemical; details: IC 50-values of reversible inhibitors
AgAChE1-G119S [18] = molecular target: T7, AgAChE1-G119S; details: cited from earlier work

In the case of `CC(=O)SCC[N+](C)(C)C` [ATChI, acetylthiocholine iodide], the Kcat [1] is listed as 2333^c s^-1, the Km [2] is listed as 84 µM and the Vmax [2] is listed as 725 (694–756) mA/min. The “Vmax in percent of Vmax(ATChI)” value [2] was 100^a percent of Vmax(ATChI), the Kcat [3] was 6167^d s^-1 and the Km [4] was 27 µM. For the same molecule, the Vmax [4] was 528 (505–552) mA/min, the “Vmax in percent of Vmax(ATChI)” value [4] was 100^a percent of Vmax(ATChI) and the Km [5] was 25 µM. The Vmax [5] was 406 (389–422) mA/min, the “Vmax in percent of Vmax(ATChI)” value [5] was 100^a percent of Vmax(ATChI) and the Vmax [6] was 318 (310–326) mA/min. For the same molecule, the “Vmax in percent of Vmax(ATChI)” value [6] was 100^a percent of Vmax(ATChI), the Kcat [7] was 4^b s^-1 and the Km [8] was 146 µM. The Vmax [8] was 821 (782–860) mA/min and the “Vmax in percent of Vmax(ATChI)” value [8] was 100^a percent of Vmax(ATChI).
In the case of `CCCC(=O)SCC[N+](C)(C)C` [BTChI, butyrylthiocholine iodide], the Km [4] is reported as 36 µM, the Vmax [4] is reported as 58 (55–61) mA/min and the Km [5] is reported as 45 µM. For the same molecule, the Vmax [5] was 38 (36–40) mA/min and the Vmax [6] was 34 (24–45) mA/min.
For `CCN1CCC[C@@H]1CNC(=O)c1cc([N+](=O)[O-])c(N(C)C)cc1OC` [C5685R], the IC50 (hAChE [9]) is listed as 1.3 µM, the IC50 (mAChE [10]) is listed as 0.7 µM and the IC50 (AaAChE1 [11]) is listed as over 30 µM.
In the case of `CCN1CCC[C@H]1CNC(=O)c1cc([N+](=O)[O-])c(N(C)C)cc1OC` [C5685S], the IC50 (hAChE [9]) is given as 1.4 µM and the IC50 (mAChE [10]) is given as 0.7 µM.
In the case of `CNC(=O)Oc1ccc2c(c1)[C@]1(C)CCN(C)[C@@H]1N2C` [Eserine, eserine], the “fold more potent on AChE1 than on vertebrate AChEs (k i)” value [12] is reported as “approximately 10 fold”, the “ki-values of covalent inhibitors” value (AgAChE1-G119S [13]) is reported as 1.18 (0.63–1.72) μM^-1 min^-1 and 1,18 μM^-1 min^-1 and the “ki-values of covalent inhibitors” value (AgAChE1) is reported as 27.3 (23.8–30.8) μM^-1 min^-1 and 27,26 μM^-1 min^-1. For the same molecule, the “ki-values of covalent inhibitors” value (hAChE [14]) was 2.66 (2.28–3.05) μM^-1 min^-1 and 2,66 μM^-1 min^-1, the “ki-values of covalent inhibitors” value (AaAChE1 [15]) was 24.8 (18.1–31.5) μM^-1 min^-1 and 24,8 μM^-1 min^-1 and the “ki-values of covalent inhibitors” value (mAChE [16]) was 1.36 (1.15–1.56) μM^-1 min^-1 and 1,36 μM^-1 min^-1.
In the case of `CCN(CC)C(C)CN1c2ccccc2Sc2ccccc21` (centres unmarked) [Ethopropazine, ethopropazine], the IC50 (mAChE [17]) is reported as about 1000 µM.
With `CCC(=O)SCC[N+](C)(C)C` [PTChI, propionylthiocholine iodide] the Km [2] was 59 µM, the Vmax [2] was 367 (354–380) mA/min and the “Vmax in percent of Vmax(ATChI)” value [2] was 50,6^a percent of Vmax(ATChI). For the same molecule, the Km [4] was 25 µM, the Vmax [4] was 407 (393–421) mA/min and the “Vmax in percent of Vmax(ATChI)” value [4] was 77,1^a percent of Vmax(ATChI). For the same molecule, the Km [5] was 20 µM, the Vmax [5] was 266 (258–275) mA/min and the “Vmax in percent of Vmax(ATChI)” value [5] was 65,5^a percent of Vmax(ATChI). The Vmax [6] was 105 (87–123) mA/min, the Km [8] was 150 µM and the Vmax [8] was 429 (415–442) mA/min. For the same molecule, the “Vmax in percent of Vmax(ATChI)” value [8] was 52,3^a percent of Vmax(ATChI).
In the case of `CNC(=O)Oc1ccccc1OC(C)C` [Propoxur, propoxur], the ki (AgAChE1-G119S [18]) is listed as 0,00015^b µM^-1 min^-1, the “fold lower inhibition constants than eserine” value [12] is listed as 15–30 fold and the “fold more potent on AChE1 than on vertebrate AChEs (k i)” value [12] is listed as “approximately 10 fold”. The “inhibition of the G119S mutant” value (AgAChE1-G119S [13]) was “only marginal inhibition”, the “ki-values of covalent inhibitors” value (AgAChE1) was 1.11 (1.02–1.21) μM^-1 min^-1 and 1,11 μM^-1 min^-1 and the “ki-values of covalent inhibitors” value (AaAChE1 [15]) was 1.20 (1.05–1.35) μM^-1 min^-1 and 1,2 μM^-1 min^-1.
